Where a SMILES comes first, the peptide text is derived from it. Bridges are numbered along the chain shown (N, C = ends). [ ]: non-standard residue; d: D form. The star is where a group is joined. Phe(4-COOH) = N[C@@H](Cc1ccc(C(=O)O)cc1)C(=O)O; Bip = N[C@@H](Cc1ccc(-c2ccccc2)cc1)C(=O)O; Phe(3-Cl) = N[C@@H](Cc1cccc(Cl)c1)C(=O)O; Phe(3-Me) = Cc1cccc(C[C@H](N)C(=O)O)c1; NMehArg = CN[C@@H](CCCCNC(=N)N)C(=O)O; Val(3-OH) = CC(C)(O)[C@H](N)C(=O)O; Cha = N[C@@H](CC1CCCCC1)C(=O)O; Cit = NC(=O)NCCC[C@H](N)C(=O)O; Ahp(2) = CCCCC[C@H](N)C(=O)O; Carboxymethyl = O=C(O)C*; Nle = CCCC[C@H](N)C(=O)O; Orn = NCCC[C@H](N)C(=O)O; Pra = C#CC[C@H](N)C(=O)O; Dab = NCC[C@H](N)C(=O)O; Dap = NC[C@H](N)C(=O)O; Ac3c = NC1(C(=O)O)CC1; Propargyl = C#CC*

In the experiment the target is T1, human PD-1 / PD-L1-Ig binding on Jurkat cell line over-expressing human PD-1 (Jurkat-PD-1) (Homo sapiens, UniProt Q15116).
T1 construct: expressed in transfected cells; host or cells: Jurkat
Kind of experiment: Jurkat-PD-1 Cell Binding High-Content Screening Assay (CBA). The experiment is classed as cell-based. As to conditions: Jurkat-PD-1 cells, PE-labeled PD-L1-Ig 20 nM final; read-out: Jurkat HPD1_PDL1 IC50. The method, boiled down: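 Cell-bound PE-labeled PD-L1-Ig (20 nM final, 1 h) measured by high-content imaging after fixation and Hoechst 33342 counterstain. Compound was applied first for 2 h at 37° C. to Jurkat cells over-expressing human PD-1 in DMEM with 10% FCS.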

T1 sequence (Q15116 25-288): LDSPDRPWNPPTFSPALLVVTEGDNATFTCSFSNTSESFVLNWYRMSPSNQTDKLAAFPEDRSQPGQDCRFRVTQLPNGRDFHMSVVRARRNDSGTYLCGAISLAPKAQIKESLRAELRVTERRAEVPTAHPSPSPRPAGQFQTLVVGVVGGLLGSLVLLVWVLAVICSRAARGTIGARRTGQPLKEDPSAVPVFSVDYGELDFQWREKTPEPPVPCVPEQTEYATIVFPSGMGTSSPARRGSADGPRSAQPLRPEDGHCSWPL

As a reminder, the IC50 is the concentration that gives 50% inhibition. Regarding `CC(C)C[C@@H]1NC(=O)[C@H](Cc2c[nH]c3ccccc23)NC(=O)[C@H](CC(=O)O)NC(=O)[C@H](Cc2ccc(OCC(=O)O)cc2)NC(=O)[C@H](Cc2ccc(OCC(=O)O)cc2)NC(=O)CSC[C@@H](C(=O)NCC(N)=O)NC(=O)[C@H](CO)NC(=O)[C@H](C(C)C)NC(=O)[C@H](CC(C)C)NC(=O)[C@H](CC(N)=O)NC(=O)[C@@H](CC(C)C)NC(=O)[C@H](CN)NC(=O)[C@H](C(C)C)NC(=O)[C@H](Cc2ccc(-c3ccccc3)cc2)NC1=O` [Compound 1291] ({CH2CO}-Y(Carboxymethyl)Y(Carboxymethyl)DWL[Bip]V[Dap][dL]NLVSCG-NH2; thioether N-14), the IC50 was 12.1 nM.

`CCCC[C@H]1NC(=O)[C@H](CCCN)NC(=O)[C@H](CCCNC(N)=O)NC(=O)[C@H](Cc2ccc(-c3ccccc3)cc2)NC(=O)[C@H](C(C)C)NC(=O)[C@H](Cc2c[nH]c3ccccc23)NC(=O)[C@H](CC(=O)O)NC(=O)[C@H](Cc2ccc(OCC(=O)O)cc2)NC(=O)[C@H](CN)NC(=O)CSC[C@@H](C(=O)N[C@@H](C)C(N)=O)NC(=O)[C@H]([C@@H](C)O)NC(=O)[C@H](C(C)C)NC(=O)[C@H](CC2CCCCC2)NC(=O)[C@H](CCN)NC1=O` [Compound 1700]: the IC50 was determined as 21.4 nM.

Consider `CCCC[C@@H]1NC(=O)[C@H](CC(N)=O)NC(=O)[C@@H](CC(C)C)NC(=O)[C@H](CCCN)NC(=O)[C@H](C(C)C)NC(=O)[C@H](Cc2ccc(-c3ccccc3)cc2)NC(=O)[C@H](CC(C)C)NC(=O)[C@H](Cc2c[nH]c3ccccc23)NC(=O)[C@H](CC(=O)O)NC(=O)[C@H](Cc2ccc(O)cc2)NC(=O)[C@H](Cc2ccccc2)NC(=O)CSC[C@@H](C(=O)NCC(N)=O)NC(=O)[C@H](CO)NC(=O)[C@H](C(C)C)NC1=O` [Compound 1339] ({CH2CO}-FYDWL[Bip]V[Orn][dL]N[Nle]VSCG-NH2; thioether N-14), for which the IC50 was found to be 52 nM.

Turning to `CC(C)C[C@H]1NC(=O)[C@H](CCCN)NC(=O)[C@H](CCCNC(N)=O)NC(=O)[C@H](Cc2ccc(-c3ccccc3)cc2)NC(=O)[C@H](C(C)C)NC(=O)[C@H](Cc2c[nH]c3ccccc23)NC(=O)[C@H](CC(=O)O)NC(=O)[C@H](Cc2ccc(OCC(=O)O)cc2)NC(=O)[C@H](CN)NC(=O)CSC[C@@H](C(=O)N[C@@H](C)C(N)=O)NC(=O)[C@H]([C@@H](C)O)NC(=O)[C@H]([C@@H](C)O)NC(=O)[C@H](CC2CCCCC2)NC(=O)[C@H](CCN)NC1=O` [Compound 1318] ({CH2CO}-[Dap]Y(Carboxymethyl)DWV[Bip][Cit][Orn][dL][Dab][Cha]TTCA-NH2; thioether N-14), the IC50 stood at 10.6 nM.

For the compound `CC(C)C[C@@H]1NC(=O)[C@H](CCN)NC(=O)[C@@H](CC(C)C)NC(=O)[C@H](CCCN)NC(=O)[C@H](CCCNC(=N)N)NC(=O)[C@H](Cc2ccc(-c3ccccc3)cc2)NC(=O)[C@H](C(C)C)NC(=O)[C@H](Cc2c[nH]c3ccccc23)NC(=O)[C@H](CC(=O)O)NC(=O)[C@H](Cc2ccc(C(=O)O)cc2)NC(=O)[C@H](Cc2ccc(OCC(=O)O)cc2)NC(=O)CSC[C@@H](C(=O)N[C@@H](C)C(N)=O)NC(=O)[C@H]([C@@H](C)O)NC(=O)[C@H](C(C)C)NC1=O` [Compound 1243] ({CH2CO}-Y(Carboxymethyl)[Phe(4-COOH)]DWV[Bip]R[Orn][dL][Dab]LVTCA-NH2; thioether N-14), the concentration for half-maximal inhibition (IC50) was determined as 42.9 nM.

With `C#CCOc1ccc(C[C@@H]2NC(=O)[C@H](CC3CCCCC3)NC(=O)[C@H](CCN)NC(=O)[C@@H](CC(C)C)NC(=O)[C@H](CCCN)NC(=O)[C@H](C(C)C)NC(=O)[C@H](Cc3ccc(-c4ccccc4)cc3)NC(=O)[C@H](C(C)C)NC(=O)[C@H](Cc3cccc(C)c3)NC(=O)[C@H](CC(=O)O)NC(=O)[C@H](Cc3ccc(C(=O)O)cc3)NC(=O)[C@H](CN)NC(=O)CSC[C@@H](C(=O)N[C@@H](CCN)C(N)=O)NC(=O)[C@H]([C@@H](C)O)NC2=O)cc1` [Compound 2028] ({CH2CO}-[Dap][Phe(4-COOH)]D[Phe(3-Me)]V[Bip]V[Orn][dL][Dab][Cha]Y(Propargyl)TC[Dab]-NH2; thioether N-14), the IC50 worked out at 9.3 nM.

Consider `CC(C)C[C@H]1NC(=O)[C@H](CCCN)NC(=O)[C@H](C(C)C)NC(=O)[C@H](Cc2ccc(-c3ccccc3)cc2)NC(=O)[C@H](C(C)C)NC(=O)[C@H](Cc2c[nH]c3ccccc23)NC(=O)[C@H](CC(=O)O)NC(=O)[C@H](Cc2ccc(OCC(=O)O)cc2)NC(=O)[C@H](CCCCNC(=N)N)N(C)C(=O)CSC[C@@H](C(=O)N[C@@H](C)C(N)=O)NC(=O)[C@H](CO)NC(=O)[C@H](C(C)C)NC(=O)[C@H](CC2CCCCC2)NC(=O)[C@H](CCN)NC1=O` [Compound 2513] ({CH2CO}-[NMehArg]Y(Carboxymethyl)DWV[Bip]V[Orn][dL][Dab][Cha]VSCA-NH2; thioether N-14), for which the IC50 was found to be 18 nM.

As to `CCCCC[C@@H]1NC(=O)[C@H](C(C)C)NC(=O)[C@H](Cc2ccccc2)NC(=O)[C@H](CC(=O)O)NC(=O)[C@H](CCCNC(=N)N)NC(=O)[C@H](Cc2ccc(-c3ccccc3)cc2)NC(=O)[C@H](C(C)C)NC(=O)[C@H](Cc2c[nH]c3ccccc23)NC(=O)[C@H](CC(=O)O)NC(=O)[C@H](Cc2ccc(O)cc2)NC(=O)[C@H](Cc2ccccc2)NC(=O)CSC[C@@H](C(=O)NCC(N)=O)NC(=O)[C@H](CO)NC(=O)[C@H](C(C)C)NC1=O` [Compound 1003] ({CH2CO}-FYDWV[Bip]RDFV[Ahp(2)]VSCG-NH2; thioether N-14), the IC50 is 614 nM.

Consider `Cc1cccc(C[C@@H]2NC(=O)[C@H](CC(=O)O)NC(=O)[C@H](Cc3ccc(OCC(=O)O)cc3)NC(=O)[C@H](CN)NC(=O)CSC[C@@H](C(=O)NC3(C(N)=O)CC3)NC(=O)[C@H](CCCN)NC(=O)[C@H](C(C)C)NC(=O)[C@H](CC3CCCCC3)NC(=O)[C@H](CCN)NC(=O)[C@@H](CC(C)C)NC(=O)[C@H](CCCN)NC(=O)[C@H](Cc3ccc(O)cc3)NC(=O)[C@H](Cc3ccc(-c4ccccc4)cc3)NC(=O)[C@H](Cc3ccc(O)cc3)NC2=O)c1` [Compound 2043] ({CH2CO}-[Dap]Y(Carboxymethyl)D[Phe(3-Me)]Y[Bip]Y[Orn][dL][Dab][Cha]V[Orn]C[Ac3c]-NH2; thioether N-14), for which the IC50 was found to be 16.8 nM.

`CC(C)C[C@H]1NC(=O)[C@H](CCCN)NC(=O)[C@H](C(C)C)NC(=O)[C@H](Cc2ccc(-c3ccccc3)cc2)NC(=O)[C@H](C(C)C)NC(=O)[C@H](Cc2cccc(Cl)c2)NC(=O)[C@H](CC(=O)O)NC(=O)[C@H](Cc2ccc(C(=O)O)cc2)NC(=O)[C@H](Cc2ccc(OCC(=O)O)cc2)NC(=O)CSC[C@@H](C(=O)N[C@@H](C)C(N)=O)NC(=O)[C@H]([C@@H](C)O)NC(=O)[C@H](C(C)C)NC(=O)[C@H](CC2CCCCC2)NC(=O)[C@H](CCN)NC1=O` [Compound 1569]: the IC50 was 16.4 nM.

As to `CC(C)C[C@@H]1NC(=O)[C@H](Cc2c[nH]c3ccccc23)NC(=O)[C@H](CC(=O)O)NC(=O)[C@H](Cc2ccc(O)cc2)NC(=O)[C@H](Cc2ccccc2)NC(=O)CSC[C@@H](C(=O)NCC(N)=O)NC(=O)[C@H](CO)NC(=O)[C@H](C(C)C)NC(=O)[C@H](CC2CCCCC2)NC(=O)[C@H](CC(N)=O)NC(=O)[C@@H](CC(C)C)NC(=O)[C@H](CCCN)NC(=O)[C@H](C(C)C)NC(=O)[C@H](Cc2ccc(-c3ccccc3)cc2)NC1=O` [Compound 1334] ({CH2CO}-FYDWL[Bip]V[Orn][dL]N[Cha]VSCG-NH2; thioether N-14), the IC50 was found to be 26.9 nM.

With `C#CC[C@H](NC(=O)[C@H](C)NC(=O)[C@@H]1CSCC(=O)N[C@@H](CCN)C(=O)N[C@@H](Cc2ccc(OCC(=O)O)cc2)C(=O)N[C@@H](CC(=O)O)C(=O)N[C@@H](Cc2cccc(C)c2)C(=O)N[C@@H](Cc2ccc(OCC(=O)O)cc2)C(=O)N[C@@H](Cc2ccc(-c3ccccc3)cc2)C(=O)N[C@@H](Cc2ccc(OCC(=O)O)cc2)C(=O)N[C@@H](CCCN)C(=O)N[C@H](CC(C)C)C(=O)N[C@@H](CCN)C(=O)N[C@@H](CC2CCCCC2)C(=O)N[C@@H](C(C)(C)O)C(=O)N[C@@H](CCCC)C(=O)N1)C(=O)O` [Compound 2696] ({CH2CO}-[Dab]Y(Carboxymethyl)D[Phe(3-Me)]Y(Carboxymethyl)[Bip]Y(Carboxymethyl)[Orn][dL][Dab][Cha][Val(3-OH)][Nle]CA[Pra]-OH; thioether N-14), the half-inhibitory concentration (IC50) worked out at 17.1 nM.

For the compound `CCCC[C@@H]1NC(=O)[C@H](CCN)NC(=O)[C@@H](CC(C)C)NC(=O)[C@H](CCCN)NC(=O)[C@H](CCCNC(N)=O)NC(=O)[C@H](Cc2ccc(-c3ccccc3)cc2)NC(=O)[C@H](C(C)C)NC(=O)[C@H](Cc2c[nH]c3ccccc23)NC(=O)[C@H](CC(=O)O)NC(=O)[C@H](Cc2ccc(O)cc2)NC(=O)[C@H](Cc2ccc(OCC(=O)O)cc2)NC(=O)CSC[C@@H](C(=O)N[C@@H](C)C(N)=O)NC(=O)[C@H]([C@@H](C)O)NC(=O)[C@H](C(C)C)NC1=O` [Compound 1166] ({CH2CO}-Y(Carboxymethyl)YDWV[Bip][Cit][Orn][dL][Dab][Nle]VTCA-NH2; thioether N-14), the IC50 came out at 58.3 nM.

With `CC(C)C[C@@H]1NC(=O)[C@H](Cc2c[nH]c3ccccc23)NC(=O)[C@H](CC(=O)O)NC(=O)[C@H](Cc2ccc(O)cc2)NC(=O)[C@H](Cc2ccccc2)NC(=O)CSC[C@@H](C(=O)N[C@@H](C)C(N)=O)NC(=O)[C@H]([C@@H](C)O)NC(=O)[C@H](C(C)C)NC(=O)[C@H](CC(C)C)NC(=O)[C@H](CCN)NC(=O)[C@@H](CC(C)C)NC(=O)[C@H](CCCN)NC(=O)[C@H](C(C)C)NC(=O)[C@H](Cc2ccc(-c3ccccc3)cc2)NC1=O` [Compound 1072] ({CH2CO}-FYDWL[Bip]V[Orn][dL][Dab]LVTCA-NH2; thioether N-14), the half-inhibitory concentration (IC50) came out at 27.1 nM.

In the case of `CC(C)C[C@H]1NC(=O)[C@H](CCCN)NC(=O)[C@H](CCC(=O)O)NC(=O)[C@H](Cc2ccc(-c3ccccc3)cc2)NC(=O)[C@H](C(C)C)NC(=O)[C@H](Cc2c[nH]c3ccccc23)NC(=O)[C@H](CC(=O)O)NC(=O)[C@H](Cc2ccc(OCC(=O)O)cc2)NC(=O)[C@H](CN)NC(=O)CSC[C@@H](C(=O)N[C@@H](C)C(N)=O)NC(=O)[C@H]([C@@H](C)O)NC(=O)[C@H](C(C)C)NC(=O)[C@H](Cc2cccc(Cl)c2)NC(=O)[C@H](CCN)NC1=O` [Compound 1506] ({CH2CO}-[Dap]Y(Carboxymethyl)DWV[Bip]E[Orn][dL][Dab][Phe(3-Cl)]VTCA-NH2; thioether N-14), the IC50 was 56.7 nM.

Source of the values: patent US20250163104A1, “MACROCYCLIC IMMUNOMODULATORS” (priority 2021, published 2025).
